Data set [1] in a line: Biodistribution in healthy mice. It counts as in vivo. The conditions noted are these: male, mouse, 10 pmol total peptide, total radioactivity, healthy Swiss albino mice, iv 10 pmol; for tissue uptake at 4 h: 4 h pi. How it is done:
In the in vivo receptor blockade animal group, excess Tate (50 nmol) was administered intravenously (iv) together with the radioligand. Animals were sacrificed in groups of four at 4- and 24-h time points post injection (pi). […] Tissue distribution data were calculated as percent injected dose per gram (%ID/g) applying a suitable algorithm.
The in vivo data presented as mean %ID/g ± SD (n ≥ 4) were statistically analyzed with Student’s t test (Prism^TM 2.01, GraphPad Software, San Diego, CA, USA). Analyses were 2-tailed, and a P value < 0.05 was considered statistically significant.

The nature of data set [2]: Metabolism in blood (in vivo stability). Also on record: species or system mouse. The settings on record: healthy male Swiss albino mice, blood collected 5 min after iv injection (3 nmol), RP-HPLC radioanalysis. The procedure: The animals were kept for 5 min in cages with free access to water. They were sacrificed by cardiac puncture under ether anesthesia, and blood was withdrawn with a syringe and immediately placed in a pre-chilled EDTA-containing polypropylene vial on ice. Blood samples were centrifuged at 2,000 × g at 4 °C for 10 min.

Where two headings read alike, the source gives them in different places.

`C[C@H](NC(=O)CN1CCN(CC(=O)O)CCN(CC(=O)O)CCN(CC(=O)O)CC1)C(=O)NCC(=O)N[C@H]1CSSC[C@@H](C(=O)O)NC(=O)[C@H](CO)NC(=O)[C@H]([C@@H](C)O)NC(=O)[C@H](Cc2ccccc2)NC(=O)[C@H]([C@@H](C)O)NC(=O)[C@H](CCCCN)NC(=O)[C@H](Cc2c[nH]c3ccccc23)NC(=O)[C@H](Cc2ccccc2)NC(=O)[C@H](Cc2ccccc2)NC(=O)[C@H](CC(N)=O)NC(=O)[C@H](CCCCN)NC1=O` [[^111In]AT1S, metal not drawn]: the tissue uptake at 4 h in data set [1] (kidney, read-out: Kidney uptake) is 10.9 %ID/g; in data set [1] (pancreas, read-out: Pancreas uptake), below 0.5 %ID/g. Also, the tissue uptake at 24 h in data set [1] (kidney, 24 h pi) was 6.6 %ID/g. Moreover, in data set [2], the “intact radiopeptide detected in blood” value amounted to 2%.

Source of the values: PMC3407795 (EJNMMI Research, 2012).
